# ChEMBL document CHEMBL1240320, “Antibacterial lysine analogs that target lysine riboswitches” (Nat Chem Biol, 2007)
# Activity calls are given as the source filed them. No cut-off for these calls is given here.
# What was measured:
# [1] = biological target: Nucleic Acid; assay: Binding affinity to Bacillus subtilis 168 1A1 lysine riboswitch 179 lysc by in-line probing assay; type: nucleic-acid assay, Bacillus subtilis subsp. subtilis str. 168
# [2] = test system: Bacillus subtilis; assay: Antibacterial activity against Bacillus subtilis 168 1A1 after 24 hrs by CLSI method; type: functional
# [3] = test system: Bacillus subtilis; assay: Antibacterial activity against Bacillus subtilis 168 1A1 at 100 uM after 24 hrs by CLSI method; type: functional, organism-based; conditions: subsp. subtilis str. 168 1A1
# [4] = test system: Bacillus subtilis; assay: Antibacterial activity against Bacillus subtilis 168 M2 harboring adenosine deletion within 95 to 97 sequence in loop E of P2 motif after 24 hrs by CLSI method; type: functional
# [5] = test system: Bacillus subtilis; assay: Antibacterial activity against Bacillus subtilis 1A40 at 1 mM after 3 hrs by CLSI method; type: functional, organism-based
# [6] = test system: Bacillus subtilis; assay: Antibacterial activity against Bacillus subtilis 168 M1 harboring G163A mutation in P4 motif after 24 hrs by CLSI method; type: functional
# [7] = biological target: Nucleic Acid; assay: Binding affinity to lysine riboswitch 179 lysc of Bacillus subtilis 168 M2 harboring adenosine deletion within 95 to 97 sequence in loop E of P2 motif; type: nucleic-acid assay, Bacillus subtilis subsp. subtilis str. 168
# [8] = biological target: Nucleic Acid; assay: Binding affinity to lysine riboswitch 179 lysc of Bacillus subtilis 168 M1 harboring G163A mutation in P4 motif; type: nucleic-acid assay, Bacillus subtilis subsp. subtilis str. 168
# [9] = biological target: Nucleic Acid; assay: Binding affinity to Bacillus subtilis 168 1A1 lysine riboswitch 179 lysc; type: nucleic-acid assay, Bacillus subtilis subsp. subtilis str. 168
# [10] = test system: Bacillus subtilis; assay: Antibacterial activity against wild type Bacillus subtilis 168 1A1 assessed as inhibition of viable spore formation at 2 mM after 22 to 24 hrs; type: functional, subsp. subtilis str. 168 1A1
# [11] = test system: Bacillus subtilis; assay: Antibacterial activity against L-4-oxalysine-resistant Bacillus subtilis 168 M2 assessed as inhibition of viable spore formation at 2 mM after 22 to 24 hrs; type: functional, subsp. subtilis str. 168 M2
# [12] = test system: Bacillus subtilis; assay: Antibacterial activity against wild type Bacillus subtilis 168 1A1 assessed as inhibition of viable spore formation at 0.2 mM after 22 to 24 hrs; type: functional, subsp. subtilis str. 168 1A1
# [13] = subsp. subtilis str. 168 1A1, 24 h
# [14] = subsp. subtilis str. 168 M2, 24 h
# [15] = subsp. subtilis str. 168 M1, 24 h
compound,measurement,setting,value
Nc1ccccc1C(=O)C[C@H](N)C(=O)O [L-KYNURENINE],Kd,[1],> 1000 µM
same,MIC,[2]; [13],> 5 mM
CC(=N)NCCCC[C@H](N)C(=O)O [L-NIL],Kd,[1],11 µM
same,MIC,[2]; [13],> 5 mM
same,Activity,[3],inactive
CC(=O)N[C@@H](CCCCN)C(=O)O,Kd,[1],> 1000 µM
same,MIC,[2]; [13],> 5 mM
NCCCC[C@H](N)C(=O)O [LYSINE],MIC,[4]; subsp. subtilis str. 168 M2,inactive
same,Kd,[1],0.36 µM
same,Activity,[5],inactive
same,MIC,[6]; subsp. subtilis str. 168 M1,inactive
same,Kd,[7],2.9 µM
same,Kd,[8],3 µM
same,Kd,[9],1.7 µM
same,MIC,[2]; subsp. subtilis str. 168 1A1,inactive
CN[C@@H](CCCCN)C(=O)O,Kd,[1],> 1000 µM
same,MIC,[2]; [13],> 5 mM
CC(=O)NCCCC[C@H](N)C(=O)O,Kd,[1],> 1000 µM
same,MIC,[2]; [13],> 5 mM
Nc1cc(C[C@H](N)C(=O)O)ccc1O,Activity,[10],75%
same,Kd,[1],> 1000 µM
same,MIC,[2]; [13],> 5 mM
N=C(N)NCCCC[C@H](N)C(=O)O,Kd,[1],7 µM
same,Activity,[5],inactive
same,MIC,[2]; [13],> 5 mM
NCCOC[C@H](N)C(=O)O,Activity,[10],6%
same,MIC,[4]; [14],1.56 mM
same,Kd,[1],13 µM
same,Activity,[11],65%
same,Activity,[5],Active
same,MIC,[6]; [15],1.56 mM
same,Kd,[7],75 µM
same,Kd,[8],29 µM
same,Kd,[9],26 µM
same,MIC,[2]; [13],0.173 mM
same,Activity,[12],71%
same,Activity,[3],Active
NCCSC[C@H](N)C(=O)O,Activity,[1]; subsp. subtilis str. 168 1A1,Active
C[N+](C)(C)CCCC[C@H](N)C(=O)O [TRIMETHYLLYSINE],Kd,[1],> 1000 µM
same,MIC,[2]; [13],> 5 mM
NCC(=O)CCC(N)C(=O)O (racemic),Activity,[10],47%
same,Kd,[1],> 1000 µM
same,Activity,[11],9%
same,MIC,[2]; [13],> 5 mM
NCCS(=O)(=O)C[C@H](N)C(=O)O,Activity,[10],0%
same,MIC,[4]; [14],3.44 mM
same,Kd,[1],2.5 µM
same,Activity,[11],17%
same,Activity,[5],Active
same,MIC,[6]; [15],1.56 mM
same,Kd,[7],24 µM
same,Kd,[8],14 µM
same,Kd,[9],13 µM
same,MIC,[2]; [13],0.026 mM
same,Activity,[12],7%
same,Activity,[3],Active
NC/C=C/CC(N)C(=O)O (racemic),MIC,[4]; [14],> 5 mM
same,Kd,[1],0.97 µM
same,Activity,[5],Active
same,MIC,[6]; [15],> 5 mM
same,MIC,[2]; [13],0.938 mM
same,Activity,[3],Active
